Data set [1] is described as follows: In vivo CT imaging of the photosensitizer after tail vein injection. To be noted: rat, 1 mg/kg via tail vein, 5 min to 4 hours post administration. As to the method:
For in vivo imaging of the photosensitizer, a rat was injected with 1 mg/kg of OsH2dppn via tail vein and imaged with a small animal CT scanner as a function of time post-systemic administration (5, 10, 30 min, 1, 2, 4 hours).

Data set [2] relates to U87 cells. In words: Presto Blue cell kill after light and/or X-ray PDT, U87 cells. The settings on record: 20 μM. In kind it is cell-based, human. Here is the method: The cells were incubated in complete DMEM media containing antibiotics and 10% FBS (resulting in 2.5 μM bovine Tf in the medium) and all the solutions were prepared in this media. The cells were loaded with TLD1433 or TLDOsH2IP (20-80 μM) for 4 hours at 37° C. Subsequently, a wash with complete medium was performed followed by irradiation with red (625 nm, 90 J cm^−2) or near infrared (808 nm, 600 J cm^−2) light, X-ray (5 Gy, 225 keV), X-ray followed by light or light followed by X-ray. Matched dark controls were used in parallel: incubation at ambient conditions (ambient air, room temperature) for a length of time corresponding to the irradiation session. After irradiation, the cells were returned to the incubator. After 21 hours, the viability of cells was determined by Presto Blue assay, and cell kill was calculated as percent of matched control. Pure PDT effect was calculated in the following way: Pure PDT effect (percent cell kill)=Total PDT percent cell kill−Light alone percent cell kill−Dark percent cell kill.

Setting [3] is: near infrared light (808 nm, 600 J cm^−2).

On to `[Os+2].c1ccc2cc3nc4c5cccnc5c5ncccc5c4nc3cc2c1.c1ccc2nc(-c3ccc4ccccc4n3)ccc2c1.c1ccc2nc(-c3ccc4ccccc4n3)ccc2c1` [OsH2dppn, [Os(biq)2(LL)] benzo[i]dipyrido-[3,2-a:2′,3′-c]phenazine], for which the “Distribution on CT images over time” value in data set [1] is listed as “presumably accumulating in the bladder over time”.

Take `[Os+2].c1ccc2nc(-c3ccc4ccccc4n3)ccc2c1.c1ccc2nc(-c3ccc4ccccc4n3)ccc2c1.c1cnc2c(c1)c1nc[nH]c1c1cccnc12` [OsH2IP, [Os(biq)2(LL)] imidazo[4,5-f][1,10]phenanthroline]: in data set [2] (no irradiation), the “Dark cell kill (%)” value was found to be 5.1%. The “PDT cell kill (%)” value in data set [2] (Near Infrared & X-ray) was found to be 31.5%; in data set [2] (X-ray & Near Infrared) it was 50.0%; in data set [2] (X-ray (5 Gy, 225 KeV)), 13.8%; in data set [2] (setting [3]), 24.6%. The “Pure PDT effect (% cell kill, in brackets)” value was 17.0 % cell kill in data set [2] (Near Infrared & X-ray); 39.6 % cell kill in data set [2] (X-ray & Near Infrared); 6.8 % cell kill in data set [2] (X-ray (5 Gy, 225 KeV)); 19.5 % cell kill in data set [2] (setting [3]). Further, the “Synergy in the pure PDT effect (% cell kill)” value is listed as −9.3 % cell kill in data set [2] (Near Infrared & X-ray) and 13.4 % cell kill in data set [2] (X-ray & Near Infrared).

For the origin of these results see US10335608B2, “Photodynamic compounds and methods for activating them using ionizing radiation and/or other electromagnetic radiation for therapy and/or diagnostics” (THERALASE TECHNOLOGIES, INC., priority 2016, dated 2019).
